# Source: patent US20160075667A1, “COMPOSITIONS AND METHODS FOR CHEMICAL EXCHANGE SATURATION TRANSFER (CEST) MAGNETIC RESONANCE IMAGING (MRI)” (The Johns Hopkins University, priority 2013, published 2016)
# Assay: Phantom calibration: CEST MTRasym spectra of I45DC-(Glu)2 in PBS
# Type: physicochemical
# Settings: pH 5.4 to 7.5
# Protocol: I45DC-(Glu)2 was dissolved in PBS with conc. of 50 mM, 25 mM, 12 mM and 6.25 mM and pH from 5.4 to 7.5.
# Images were taken on Bruker 11.7T scanners, using a RARE sequence with CW saturation pulse of B1=5.9 uT, Tsat=3 s. For phantoms, saturation frequency incremented every 0.3 ppm from −15 to 15 ppm with TR/TE=6000 ms/17 ms, matrix size=64×48. For in vivo, an axial slice across both kidney carlyx was chosen with thickness of 1.5 mm CEST images with saturation frequencies of [±7.8 ppm, ±7.5 ppm, ±7.2 ppm] and [±4.8 ppm, ±4.5 ppm, ±4.2 ppm] for pH reference were acquired repeatedly every 10 min pre- and post-injection. Image parameters are similar as for phantom except for TR/TE=5 s/15 ms, and CEST contrast was quantified by
# MTRasym=(S−Δω−S+Δω)/S−Δω.
# CEST MTRasym spectra of I45DC-(Glu)2 (FIG. 5A) show 2 broad peaks centered at 7.5 ppm and 2.4 ppm, with the 7.5 ppm peak increasing as pH increases, while the 2.5 ppm-5 ppm part remains relatively constant. […] The linearity of the ratio using saturation B1=5.9 uT is better than B1=3.6 uT partially due to a relative fast exchange rate of the heterocyclic NH (kex=˜4000).
smiles,measurement,setting,value
"O=C[C@H](CCC(=O)O)NNC(=O)c1nc[nH]c1C(=O)NN[C@H](C=O)CCC(=O)O [I45DC-(Glu)2, 4,5-bis[(Glu)carbonyl]-1H-imidazole]",ratio of the 7.5 ppm contrast to contrast at 4.8 ppm,6.25-50 mM,dependent on pH
same,exchange rate of the heterocyclic NH (kex),,~4000
